The compounds below were run on HT-29 cells (assay: HT29 Cells 0FBS Assay In Vitro (TNF-α/SMAC mimetic/zVAD-FMK induced necroptosis, CellTiter-Glo cell viability)). Details: Homo sapiens; HT-29 cells, FBS free medium, TNF-α (10 ng/ml), SMAC mimetic (6 uM), zVAD-FMK (10 μM), 20 hours; geometric mean EC50; read-out: Cell activity (EC50) of Compounds 1-116.
Type: cell-based
Summary of the method: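 HT-29 cells (5,000/well, seeded overnight) in serum-free McCoy's 5A were stimulated with TNF-α 10 ng/ml, SMAC mimetic 6 μM and zVAD-FMK 10 μM to induce necroptosis. Compound added as 10-point 3-fold series for 20 h at 37° C. CellTiter-Glo luminescence gives viability; EC50 is geometric mean of duplicate dose-responses.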

Compound	EC50 [nM]
Cc1nc(C)n(-c2cc(OC3CN(C(=O)N4N=CC[C@H]4c4cc(F)cc(F)c4)C3)c(F)cn2)n1 [compound 104, (S)-(5-(3,5-difluorophenyl)-4,5-dihydro-1H-pyrazol-1-yl)(3-((2-(3,5-dimethyl-1H-1,2,4-triazol-1-yl)-5-fluoropyridin-4-yl)oxy)azetidin-1-yl)methanone]	0.1 to 100
Cn1cc(-c2cc(OC3CN(C(=O)N4N=CC[C@H]4c4cc(F)cc(F)c4)C3)c(F)cn2)nn1 [compound 32, (S)-(5-(3,5-difluorophenyl)-4,5-dihydro-1H-pyrazol-1-yl)(3-((5-fluoro-2-(1-methyl-1H-1,2,3-triazol-4-yl)pyridin-4-yl)oxy)azetidin-1-yl)methanone]	0.1 to 100
CC(C)CC(=O)Nc1cnn(C)c1-c1cc(OC2CN(C(=O)N3N=CC[C@H]3c3cc(F)cc(F)c3)C2)c(F)cn1 [compound 60, (S)—N-(5-(4-((1-(5-(3,5-difluorophenyl)-4,5-dihydro-1H-pyrazole-1-carbonyl)azetidin-3-yl)oxy)-5-fluoropyridin-2-yl)-1-methyl-1H-pyrazol-4-yl)-3-methylbutanamide]	0.1 to 100
NC(=O)c1cccn1-c1ncc(F)c(OC2CN(C(=O)N3N=CC[C@H]3c3cc(F)cc(F)c3)C2)n1 [compound 107, (S)-1-(4-((1-(5-(3,5-difluorophenyl)-4,5-dihydro-1H-pyrazole-1-carbonyl)azetidin-3-yl)oxy)-5-fluoropyrimidin-2-yl)-1H-pyrrole-2-carboxamide]	0.1 to 100
CN(C)C(=O)c1cnn(C)c1-c1cc(OC2CN(C(=O)N3N=CC[C@H]3c3cc(F)cc(F)c3)C2)c(F)cn1 [compound 68, (S)-5-(4-((1-(5-(3,5-difluorophenyl)-4,5-dihydro-1H-pyrazole-1-carbonyl)azetidin-3-yl)oxy)-5-fluoropyridin-2-yl)-N,N,1-trimethyl-1H-pyrazole-4-carboxamide]	1000 to 10000
Cc1cccn1-c1ncc(F)c(OC2CN(C(=O)N3N=CC[C@H]3c3cc(F)cc(F)c3)C2)n1 [compound 102, (S)-(5-(3,5-difluorophenyl)-4,5-dihydro-1H-pyrazol-1-yl)(3-((5-fluoro-2-(2-methyl-1H-pyrrol-1-yl)pyrimidin-4-yl)oxy)azetidin-1-yl)methanone]	0.1 to 100
Cn1ncc(N)c1-c1cc(OC2CN(C(=O)N3N=CC[C@H]3c3cc(F)cc(F)c3)C2)c(F)cn1 [compound 53, (S)-(3-((2-(4-amino-1-methyl-1H-pyrazol-5-yl)-5-fluoropyridin-4-yl)oxy)azetidin-1-yl)(5-(3,5-difluorophenyl)-4,5-dihydro-1H-pyrazol-1-yl)methanone]	0.1 to 100
Cn1cncc1-c1ccc(F)c(OC2CN(C(=O)N3N=CC[C@H]3c3cc(F)cc(F)c3)C2)n1 [compound 6, (S)-(5-(3,5-difluorophenyl)-4,5-dihydro-1H-pyrazol-1-yl)(3-((3-fluoro-6-(1-methyl-1H-imidazol-5-yl)pyridin-2-yl)oxy)azetidin-1-yl)methanone]	0.1 to 100

Same assay, conditions: Homo sapiens; HT-29 cells, FBS free medium, TNF-α (10 ng/ml), SMAC mimetic (6 uM), zVAD-FMK (10 μM), 20 hours; geometric mean EC50; read-out: Cell activity (EC50) of Compounds 117-281

Compound	EC50 [nM]
Cn1nc(CO)nc1-c1cc(OC2CN(C(=O)N3N=CC[C@H]3c3cc(F)cc(F)c3)C2)c(F)cn1 [compound 202, (S)-(5-(3,5-difluorophenyl)-4,5-dihydro-1H-pyrazol-1-yl)(3-((5-fluoro-2-(3-(hydroxymethyl)-1-methyl-1H-1,2,4-triazol-5-yl)pyridin-4-yl)oxy)azetidin-1-yl)methanone]	0.1 to 100
Cc1nn(C2CNC2)c(C)c1-c1cc(OC2CN(C(=O)N3N=CC[C@H]3c3cc(F)cc(F)c3)C2)c(F)cn1 [compound 131, (S)-(3-((2-(1-(azetidin-3-yl)-3,5-dimethyl-11H-pyrazol-4-yl)-5-fluoropyridin-4-yl)oxy)azetidin-1-yl)(5-(3,5-difluorophenyl)-4,5-dihydro-1H-pyrazol-1-yl)methanone]	0.1 to 100
Cc1c(-c2cc(OC3CN(C(=O)N4N=CC[C@H]4c4cc(F)cc(F)c4)C3)c(F)cn2)nn(C)c1C1=NCCN1C [compound 267, (S)-(5-(3,5-difluorophenyl)-4,5-dihydro-1H-pyrazol-1-yl)(3-((2-(1,4-dimethyl-5-(1-methyl-4,5-dihydro-1H-imidazol-2-yl)-1H-pyrazol-3-yl)-5-fluoropyridin-4-yl)oxy)azetidin-1-yl)methanone]	100 to 1000
COC(=O)Cn1nc(C)c(-c2cc(OC3CN(C(=O)N4N=CC[C@H]4c4cc(F)cc(F)c4)C3)c(F)cn2)c1C [compound 118, methyl (S)-2-(4-(4-((1-(5-(3,5-difluorophenyl)-4,5-dihydro-1H-pyrazole-1-carbonyl)azetidin-3-yl)oxy)-5-fluoropyridin-2-yl)-3,5-dimethyl-1H-pyrazol-1-yl)acetate]	1000 to 10000
Cc1c(-c2cc(OC3CN(C(=O)N4N=CC[C@H]4c4cc(F)cc(F)c4)C3)c(F)cn2)nn(C)c1C1=NCCN1 [compound 266, (S)-(5-(3,5-difluorophenyl)-4,5-dihydro-1H-pyrazol-1-yl)(3-((2-(5-(4,5-dihydro-1H-imidazol-2-yl)-1,4-dimethyl-1H-pyrazol-3-yl)-5-fluoropyridin-4-yl)oxy)azetidin-1-yl)methanone]	0.1 to 100
Cc1c(-c2cc(OC3CN(C(=O)N4N=CC[C@H]4c4cc(F)cc(F)c4)C3)c(F)cn2)nn(C)c1C(=O)NC1CCC1 [compound 264, (S)—N-cyclobutyl-3-(4-((1-(5-(3,5-difluorophenyl)-4,5-dihydro-1H-pyrazole-1-carbonyl)azetidin-3-yl)oxy)-5-fluoropyridin-2-yl)-1,4-dimethyl-1H-pyrazole-5-carboxamide]	0.1 to 100
Cc1nn(-c2cc(OC3CN(C(=O)N4N=CC[C@H]4c4cc(F)cc(F)c4)C3)c(F)cn2)c(C)c1C#N [compound 151, (S)-1-(4-((1-(5-(3,5-difluorophenyl)-4,5-dihydro-1H-pyrazole-1-carbonyl)azetidin-3-yl)oxy)-5-fluoropyridin-2-yl)-3,5-dimethyl-1H-pyrazole-4-carbonitrile]	0.1 to 100
Cc1c(-c2cc(OC3CN(C(=O)N4N=CC[C@H]4c4cc(F)cc(F)c4)C3)c(F)cn2)nn(C)c1C(=O)NC1COC1 [compound 262, (S)-3-(4-((1-(5-(3,5-difluorophenyl)-4,5-dihydro-1H-pyrazole-1-carbonyl)azetidin-3-yl)oxy)-5-fluoropyridin-2-yl)-1,4-dimethyl-N-(oxetan-3-yl)-1H-pyrazole-5-carboxamide]	0.1 to 100
CN1CCN(CC(=O)Nc2cnn(C)c2-c2cc(OC3CN(C(=O)N4N=CC[C@H]4c4cc(F)cc(F)c4)C3)c(F)cn2)CC1 [compound 123, (S)—N-(5-(4-((1-(5-(3,5-difluorophenyl)-4,5-dihydro-1H-pyrazole-1-carbonyl)azetidin-3-yl)oxy)-5-fluoropyridin-2-yl)-1-methyl-1H-pyrazol-4-yl)-2-(4-methylpiperazin-1-yl)acetamide]	100 to 1000
Cc1nn(-c2cc(OC3CN(C(=O)N4N=CC[C@H]4c4cc(F)cc(F)c4)C3)c(F)cn2)c(C)c1S(=O)(=O)NC1CCC1 [compound 235, (S)—N-cyclobutyl-1-(4-((1-(5-(3,5-difluorophenyl)-4,5-dihydro-1H-pyrazole-1-carbonyl)azetidin-3-yl)oxy)-5-fluoropyridin-2-yl)-3,5-dimethyl-1H-pyrazole-4-sulfonamide]	0.1 to 100
